Measurements as given in paper PMC8059291 (Antiviral Research, 2021).

Biological target: SARS-CoV-2 RdRp (Severe acute respiratory syndrome coronavirus 2, UniProt P0DTD1)
Assay: CoV-Gluc RNA levels by real-time RT-PCR after NA treatment
Format: cell-based
Details: HEK293T, 1 μM, 24 h

## CCC(CC)COC(=O)[C@H](C)N[P@](=O)(OC[C@H]1O[C@@](C#N)(c2ccc3c(N)ncnn23)[C@H](O)[C@@H]1O)Oc1ccccc1 [Remdesivir]
  reduction of minus-strand Gluc RNA: 60%
